Results on 45 molecules are retold here after patent publication US6043248A, “Alpha-substituted pyrimidine-thioalkyl and alkylether compounds as inhibitors of viral reverse transcriptase” (priority 1997, dated 2000).

pIC50: −log10 of the molar value. Read-outs that look alike come from different tables or passages of the source.

This assay deals with T1, P236L viral reverse transcriptase (Human immunodeficiency virus type 1 group M subtype B, UniProt P04585, P823L).
T1 construct: P236L viral reverse transcriptase is obtained by PNAS 90: 4713-4717 (1993); made in house
The experiment in a line: inhibition of viral reverse transcriptase (P236L), cell free assay. Format: biochemical. To be noted: 30 minutes at 37° C. From the text:
The utility of the pyrimidine-thioalkyl and alkylether anti-AIDS compounds of Formula IA of this invention can be determined by their ability to inhibit viral reverse transcriptase, an enzyme essential for human immunodeficiency virus replication. This enzyme has characteristics which differentiate it from other known cellular polymerases and it is a unique enzyme which is not found in uninfected cells. Viral reverse transcriptase (Wild Type) is found in extracts from bacterial clones prepared according to the procedure described in AIDS Virus Reverse Transcriptase defined by high level expression in Escherichia coli, EMBO J. 6:3133-3137 (1987). P236L viral reverse transcriptase is obtained by PNAS 90: 4713-4717 (1993). Inhibition of this enzyme is determined in a cell free assay which measures the level of radioactive precursors incorporated into DNA. Extracts prepared according to the procedure of Science, 1125-1129 (1981) are incubated in a mixture of inhibitor, 20 mM dithiothreitol, 60 mM sodium chloride, 0.05% NP-40, 10 mM magnesium chloride, 50 mM Tris pH 8.3, 10 μM [^35 S]-labeled deoxynuleoside-5'-triphosphate, 10 μg/ml RNA template (poly rC or poly rG) and 5 μg/ml DNA primer (oligo dG or oligo dT) for 30 minutes at 37° C. Incorporation of radio-labeled percursor is determined by spotting aliquots of the reaction mixture on DE81 paper, washing the papers to remove unincorporated percursor, drying and determining counts. The results (IC50 means the concentration, in μM of drug, required to inhibit the reverse transcriptase activity (P236L and Wild Type) to the extent of 50%) of various assay(s) are combined and reported as % inhibition and/or IC50 (calculated) in Table I (P236L) and Table II (Wild Type).

Setting [1] is: read-out: IC50 (Table I, P236L).

The pIC50 is −log10 of the IC50, conventionally taken in molar units.

On to `Cn1ccnc1CSc1nc(N)cc(Cl)n1` [Example 176, 4-Amino-6-chloro-2-[(1-methylimidazol-2-ylmethyl)thio]pyrimidine], for which, under setting [1], the pIC50 was 4.60.
For `Nc1cc(Cl)nc(SCc2cc3c(cc2Cl)OCO3)n1` [Example 62, 4-amino-6-chloro-2-(6-chloro-5-piperonylmethylthio)-pyrimidine], under setting [1], the pIC50 was 7.70.
`Cc1ccccc1CSc1nc(N)cc(Cl)n1` [Example 35, 4-amino-6-chloro-2-(2-methylphenylmethylthio)-pyrimidine]: the pIC50 under setting [1] is 6.52.
Consider `Nc1cc(Cl)nc(SCc2cnc3ccccc3n2)n1` [Example 179, 4-Amino-6-chloro-2-[(quinoxalin-2-ylmethyl)thio]pyrimidine], for which the pIC50 under setting [1] is 6.30.
Regarding `Nc1nc(SCc2ccccc2)nc(Cl)c1C1CCCCC1` [Example 53, 4-amino-6-chloro-5-cyclohexyl-2-(benzylthio)-pyrimidine], the pIC50 under setting [1] is 4.82.
On the same count and under the same terms, the value for `Nc1cc(Cl)nc(SCc2cc(Cl)ccn2)n1` [Example 111, 4-amino-6-chloro-2-[2-(4-chloro)-5 pyridylmethylthio]-pyrimidine] was 7.52; that for `Nc1cc(Cl)nc(SCc2cccc(Br)c2)n1` [Example 43, 4-amino-6-chloro-2-(3-bromophenylmethylthio)-pyrimidine] was 6.85.
With `Nc1cc(Cl)nc(SCc2cccc(Cl)c2)n1` [Example 42, 4-amino-6-chloro-2-(3-chlorophenylmethylthio)-pyrimidine], under setting [1], the pIC50 was 6.30.
Consider `CC(C)c1ccnc(CSc2nc(N)cc(Cl)n2)c1` [Example 132, 4-amino-6-chloro-2-[2-(4-isopropyl)pyridylmethylthio]-pyrimidine], for which, under setting [1], the pIC50 was 7.70.
`Cc1cccnc1CSc1nc(N)cc(Cl)n1` [Example 117, 4-amino-6-chloro-2-[2-(3-methyl)pyridylmethylthio]-pyrimidine]: the pIC50 under setting [1] was 5.98.
Molecule `Nc1cc(Cl)nc(SCc2ccc(-c3ccccc3)cn2)n1` [Example 133, 4-amino-6-chloro-2-[2-(5-phenyl)pyridylmethylthio]-pyrimidine] had a pIC50 (IC50 (Table I, P236L)) of 6.00.
For the molecule `Cc1cccc(CSc2nc(N)cc(Cl)n2)c1` [Example 36, 4-amino-6-chloro-2-(3-methylphenylmethylthio)-pyrimidine], the pIC50 under setting [1] was 7.30.
Turning to `Cc1cccc(CSc2nccc(N)n2)c1` [Example 96, 4-amino-2-(3-methylphenylmethylthio)-pyrimidine], the pIC50 under setting [1] is 4.30.
Take `COc1cc(C)nc(CSc2nc(N)cc(Cl)n2)c1` [Example 120, 4-amino-6-chloro-2-[2-(4-methoxy-6-methyl)-pyridylmethylthio]-pyrimidine]: under setting [1], the pIC50 is 7.70.
In the case of `Nc1cc(Cl)nc([S+]([O-])Cc2ccc3ccccc3c2)n1` (stereo not drawn) [Example 68, 4-amino-6-chloro-2-(2-naphthylmethylsulfinyl)-pyrimidine], under setting [1], the pIC50 is 5.30.
As for `Cc1ccnc(CSc2nc(N)cc(Cl)n2)c1` [Example 114, 4-amino-6-chloro-2-[2-(4-methyl)pyridylmethylthio]-pyrimidine], the pIC50 under setting [1] is 8.00.
Consider `Cc1cc(C)nc(CSc2nc(N)cc(Cl)n2)n1` [Example 127, 4-amino-6-chloro-2-[2-(4,6-dimethyl)pyrimidinylmethylthio]-pyrimidine], for which the pIC50 under setting [1] is 6.00.
Regarding `Nc1cc(Cl)nc(SCc2cccnc2)n1` [Example 57, 4-amino-6-chloro-2-(3-pyridylmethylthio)-pyrimidine], the negative logarithm of the IC50 (pIC50) under setting [1] is 5.00.
Regarding `CN(C)c1ccnc(CSc2nc(N)cc(Cl)n2)c1` [Example 146, 4-amino-6-chloro-2-[2-(4-dimethylamino)pyridylmethylthio]-pyrimidine], the pIC50 under setting [1] is 8.00.
On to `Nc1cc(Cl)nc(SCc2ccc(F)c(F)c2)n1` [Example 48, 4-amino-6-chloro-2-(3,4-difluorophenylmethylthio)-pyrimidine], for which, under setting [1], the pIC50 is 6.30.
With `Nc1cc(Cl)nc(SCC2=CCCc3ccccc32)n1` [Example 187, 4-Amino-6-chloro-2-[[(3,4-dihydro-1-naphthalenyl)methyl]thio]pyrimidine], the pIC50 under setting [1] is 6.22.
Take `Nc1cc(Cl)nc(S(=O)(=O)Cc2cccc(Br)c2)n1` [Example 69, 4-amino-6-chloro-2-(3-bromophenylmethylsulfonyl)pyrimidine]: the negative-log IC50 (pIC50) under setting [1] was 4.70.
`Nc1cc(Cl)nc(SCc2ccc(Cl)c(Cl)c2)n1` [Example 49, 4-amino-6-chloro-2-(3,4-dichlorophenylmethylthio)-pyrimidine]: the pIC50 under setting [1] was 7.22.
Turning to `Nc1cc(Cl)nc(SCc2ccc3cc(F)c(F)cc3c2)n1` [Example 60, 4-amino-6-chloro-2-(6,7-difluoro-2-naphthylmethylthio)-pyrimidine], the pIC50 under setting [1] is 5.00.
On the same count and under the same terms, the value for `Cc1cc(CSc2nc(N)cc(Cl)n2)no1` [Example 174, 4-Amino-6-chloro-2-[(5-methylisoxazol-3-ylmethyl)thio]pyrimidine] was 6.30; that for `CCc1ccc(CSc2nc(N)cc(Cl)n2)nc1` [Example 134, 4-amino-6-chloro-2-[2-(4-ethyl)pyridylmethylthio]-pyrimidine] was 7.30.
Same read-out and setting: the value for `Cc1ccc(CSc2nc(N)cc(Cl)n2)cc1` [Example 37, 4-amino-6-chloro-2-(4-methylphenylmethylthio)-pyrimidine] was 6.48.
Still for that read-out and setting: the value for `Nc1cc(Cl)nc(SCc2ccoc2)n1` [Example 148, 4-Amino-6-chloro-2-[(furan-3-ylmethyl)thio]pyrimidine] was 5.00.
Regarding `Nc1cc(Cl)nc(SCc2nc3ccccc3s2)n1` [Example 99, 4-amino-6-chloro-2-(2-benzothiazolomethylthio)-pyrimidine], the pIC50 (IC50 (Table I, P236L)) is 6.30.
Consider `Nc1cc(Cl)nc([S+]([O-])Cc2cccc(Br)c2)n1` (stereo not drawn) [Example 67, 4-amino-6-chloro-2-(3-bromophenylmethylsulfinyl)pyrimidine], for which, under setting [1], the pIC50 was 4.60.
Consider `Nc1cc(Cl)nc(SCc2cc(N3CCCC3)ccn2)n1` [Example 143, 4-amino-6-chloro-2-[2-(4-pyrrolidino)pyridylmethylthio]-pyrimidine], for which the pIC50 under setting [1] is 7.30.
Regarding `CCc1ccnc(CSc2nc(N)cc(Cl)n2)c1` [Example 122, 4-amino-6-chloro-2-[2-(4-ethyl)pyridylmethylthio]-pyrimidine], under setting [1], the pIC50 is 8.00.
For the molecule `Nc1cc(Cl)nc(SCc2cccc3cccnc23)n1` [Example 180, 4-Amino-6-chloro-2-[(quinolin-8-ylmethyl)thio]pyrimidine], under “IC50 (Table I, P236L)”, the pIC50 is 7.30.
Turning to `Nc1cc(Cl)nc(SCc2cccc(Cl)n2)n1` [Example 112, 4-amino-6-chloro-2-[2-(6-chloro)pyridylmethylthio]-pyrimidine], the pIC50 under setting [1] was 7.15.
In the case of `Nc1cc(Cl)nc(SCc2ccc3c(c2)CCO3)n1` [Example 168, 4-Amino-6-chloro-2-[(2,3-dihydrobenzofuran-5-ylmethyl)thio]pyrimidine], the pIC50 under setting [1] was 7.30.
With `Nc1cc(Cl)nc(SCc2ccc3ncccc3c2)n1` [Example 178, 4-Amino-6-chloro-2-[(quinolin-6-ylmethyl)thio]pyrimidine], the pIC50 under setting [1] is 6.30.
For `Nc1cc(Cl)nc(SCc2cc(CO)ccn2)n1` [Example 164, 4-amino-6-chloro-2-[2-(4-hydroxymethyl)-pyridylmethylthio]-pyrimidine], the pIC50 under setting [1] was 6.00.
For `Nc1cc(Cl)nc(SCc2ccc3ccccc3n2)n1` [Example 61, 4-amino-6-chloro-2-(2-quinolinylmethylthio)-pyrimidine], the pIC50 under setting [1] was 5.30.
For `Nc1cc(Cl)nc(SCc2cccc(I)c2)n1` [Example 44, 4-amino-6-chloro-2-(3-iodophenylmethylthio)-pyrimidine], the pIC50 under setting [1] is 6.22.
Still for that read-out and setting: the value for `Cc1cc(C)nc(CSc2nc(N)cc(Cl)n2)c1` [Example 121, 4-amino-6-chloro-2-[2-(4,6-dimethyl)pyridylmethylthio]-pyrimidine] was 8.00.
Consider `CNc1cc(C#N)nc(SCc2ccc3ccccc3c2)n1` [Example 288, 6-methylamino-2-(2-naphthylmethyl)thio-4-pyrimidine carbonitrile], for which, where the note is “IC50 (Table I, P236L)”, the pIC50 is 4.30.
Take `CC(C)Cc1ccnc(CSc2nc(N)cc(Cl)n2)c1` [Example 124, 4-amino-6-chloro-2-[2-(4-(2-methylpropyl))pyridylmethylthio]-pyrimidine]: under setting [1], the pIC50 was 4.40.
Take `Nc1cc(Cl)nc(SCc2cc3ccccc3o2)n1` [Example 153, 4-Amino-6-chloro-2-[(benzofuran-2-ylmethyl)thio]pyrimidine]: under setting [1], the pIC50 was 5.00.
As for `Nc1cc(Cl)nc(SCc2cccc[n+]2[O-])n1` [Example 147, 2-[2-(4-amino-6-chloro)pyrimidinylthiomethyl]-pyridine-1-oxide], the pIC50 under setting [1] is 5.30.
For the molecule `Nc1cc(Cl)nc(SCc2ccc3cccnc3c2)n1` [Example 184, 4-Amino-6-chloro-2-[(quinolin-7-ylmethyl)thio]pyrimidine], under setting [1], the pIC50 was 5.52.
